Assay results as given in patent US4032573A, “Ortho-acylated anilide derivatives and salts thereof” (Sumitomo Chemical Company, Limited, priority 1976, dated 1977).

Assays:
guinea pigs = assay: Local anesthetic activity in guinea pigs (method of Bulbring and Waida), intracutaneous injection; format: in vivo
Description: 1. Local anesthetic activity
The local anesthetic activity of each of the compounds was determined in accordance with the method of Bulbring E. and Waida, Journal Pharmacol. Exp. Ther., 85, 78 (1945).

mice = assay: Anti-arrhythmic activity in mice (method of Lawson), intraperitoneal injection; format: in vivo; settings: Mus musculus, ip
Description: 2. Anti-arrhythmic activity
The anti-arrhythmic activity of each of the compounds was determined in accordance with the method of J. W. Lawson, Journal Pharmacol. Exp. Ther., 160, 22 (1967).

With `CCN(CC)CC(=O)Nc1c(C)cccc1C(C)=O` the “Local anesthetic activity in guinea pigs ED50 intracutaneous injection” value (from here on “Local anesthetic activity”) (guinea pigs) was 0.12 W/V % and the ED50 (mice) was 80 mg/kg.
For `CCN(CC)CC(=O)Nc1cccc(C(C)=O)c1`, the “Local anesthetic activity” value (guinea pigs) was 1.0 W/V % and the ED50 (mice) was 180 mg/kg.
In the case of `CCN(CC)CCC(=O)Nc1c(C)cccc1C(C)=O`, the “Local anesthetic activity” value (guinea pigs) is reported as 0.33 W/V % and the ED50 (mice) is reported as 50 mg/kg.
In the case of `CCN(CC)CC(=O)Nc1ccc(C(C)=O)cc1`, the “Local anesthetic activity” value (guinea pigs) is reported as 1.0 W/V % and the ED50 (mice) is reported as 250 mg/kg.
With `CCCC(=O)c1cccc(C)c1NC(=O)CCN(CC)CC` the “Local anesthetic activity” value (guinea pigs) was 0.09 W/V % and the ED50 (mice) was 25 mg/kg.
In the case of `CCN(CC)CCC(=O)Nc1cc(C(C)=O)ccc1C`, the “Local anesthetic activity” value (guinea pigs) is reported as 1.48 W/V % and the ED50 (mice) is reported as 97 mg/kg.
